Structures are written as SMILES.

hDGAT2, sequence (Q96PD7 whole entry): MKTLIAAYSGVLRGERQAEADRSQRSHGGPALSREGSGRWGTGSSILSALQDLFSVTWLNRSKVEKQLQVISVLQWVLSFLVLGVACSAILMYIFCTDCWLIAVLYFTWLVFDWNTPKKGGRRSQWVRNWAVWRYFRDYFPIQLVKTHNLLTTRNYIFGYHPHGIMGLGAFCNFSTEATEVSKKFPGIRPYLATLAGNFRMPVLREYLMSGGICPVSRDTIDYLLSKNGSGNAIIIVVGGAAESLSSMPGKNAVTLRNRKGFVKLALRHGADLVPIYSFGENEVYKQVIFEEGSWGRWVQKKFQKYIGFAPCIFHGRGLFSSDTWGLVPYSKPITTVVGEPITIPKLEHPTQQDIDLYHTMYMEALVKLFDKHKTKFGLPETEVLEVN

The first assay has as its target hDGAT2 (Homo sapiens (Human), UniProt Q96PD7). Kind of assay: DGAT2 enzymatic activity assay (triolein formation, LC/MS/MS).
Conditions: not given
Regarding `COc1cccc(-c2ccc(CNC(=O)[C@@H]3COC(c4ccccc4)=N3)c3cnccc23)c1` (racemic) [Example 42, (R/S)-N-((5-(3-methoxyphenyl)isoquinolin-8-yl)methyl)-2-phenyl-4,5-dihydrooxazole-4-carboxamide], 3550 nM corresponded to half-maximal inhibition (IC50).

Compound `CC[C@H](C(=O)NCc1ccc(-c2cccc(OC)c2)c2ccncc12)c1ccc(C(F)(F)F)c(F)c1` (racemic) [Example 126, (R/S)-2-(3-fluoro-4-(trifluoromethyl)phenyl)-N-((5-(3-methoxyphenyl)isoquinolin-8-yl)methyl)butanamide] showed an IC50 of 373 nM.

The compound `COc1cccc(-c2ccc(CNC(=O)[C@H](C)c3ccc4cc(OC)ccc4c3)c3cnccc23)c1` (racemic) [Example 142, (R/S)-2-(6-methoxynaphthalen-2-yl)-N-((5-(3-methoxyphenyl)isoquinolin-8-yl)methyl)propanamide] showed an IC50 of 118 nM.

Turning to `COc1cccc(-c2ccc(CNC(=O)[C@H](C)c3ccc(CC(C)C)cc3)c3cnccc23)c1` (racemic) [Example 146, (R/S)-2-(4-isobutylphenyl)-N-((5-(3-methoxyphenyl)isoquinolin-8-yl)methyl)propanamide], the 50% inhibitory concentration (IC50) was 923 nM.

For the compound `COC(=O)c1cccc(-c2ccc(CNC(=O)c3nccc4ccccc34)c3cnccc23)c1` [Example 11, 8-((isoquinoline-1-carboxamido)methyl)-5-(3-(methoxycarbonyl)phenyl) isoquinolin-2-ium], the IC50 was 163 nM.

Staying with this assay, now noted: read-out: IC50 values for inhibition of DGAT2; membrane prep of Sf-9 cells expressing hDGAT2; 25 μM diolein, 10 μM oleoyl-CoA; room temperature; triolein by LC/MS/MS.
For the compound `N#Cc1cccc(-c2ccc(CNC(=O)[C@@H]3C[C@H]3c3ccccc3)c3cnccc23)c1` (relative stereo) [Example 16, (trans)-N-((5-(3-cyanophenyl)isoquinolin-8-yl)methyl)-2-phenylcyclopropanecarboxamide], the half-maximal inhibitory concentration (IC50) is 3470 nM.

As to `COc1ccc([C@@H]2C[C@@H]2C(=O)NCc2ccc(-c3cccc(OC)c3)c3ccncc23)cc1` (relative stereo) [Example 24, (cis)-2-(4-methoxyphenyl)-N-((5-(3-methoxyphenyl)isoquinolin-8-yl)methyl)cyclopropanecarboxamide], the 50% inhibitory concentration (IC50) stood at 589 nM.

`COc1cccc(-c2ccc(CNC(=O)[C@H]3C[C@@H]3c3nc(C)no3)c3cnccc23)c1` (relative stereo) [Example 108, (trans)-N-((5-(3-methoxyphenyl)isoquinolin-8-yl)methyl)-2-(3-methyl-1,2,4-oxadiazol-5-yl) cyclopropanecarboxamide]: the IC50 came out at 589 nM.

Consider `COc1cccc(-c2ccc(CNC(=O)[C@@H]3C[C@@H]3c3ccc(C(F)(F)F)cc3)c3cnccc23)c1` (relative stereo) [Example 144, (cis)-N-((5-(3-methoxyphenyl)isoquinolin-8-yl)methyl)-2-(4-(trifluoromethyl)phenyl) cyclopropanecarboxamide], for which the IC50 came out at 2560 nM.

In the case of `COC(=O)c1cccc(-c2ccc(CNC(=O)Cc3ccc(C(F)(F)F)cc3)c3cnccc23)c1` [Example 2, methyl 3-(8-((2-(4-(trifluoromethyl)phenyl)acetamido)methyl)isoquinolin-5-yl)benzoate], the IC50 amounted to 85.6 nM.

As to `COC(=O)c1cccc(-c2ccc(CNC(=O)[C@@H]3C[C@H]3c3ccccc3)c3cnccc23)c1` [Example 3, methyl 3-(8-(((1R,2R)-2-phenylcyclopropanecarboxamido)methyl)isoquinolin-5-yl)benzoate], the half-inhibitory concentration (IC50) is 82.7 nM.

Consider `COC(=O)c1cccc(-c2ccc(CNC(=O)C3CC3c3nc(C)no3)c3cnccc23)c1` (centres unmarked) [Example 4, methyl 3-(8-((2-(3-methyl-1,2,4-oxadiazol-5-yl)cyclopropane-carboxamido)methyl)isoquinolin-5-yl)benzoate], for which the half-maximal inhibitory concentration (IC50) amounted to 96.5 nM.

Turning to `COC(=O)c1cccc(-c2ccc(CNC(=O)C3CCN(c4ccc(C(F)(F)F)cc4)CC3)c3cnccc23)c1` [Example 5, methyl 3-(8-((1-(4-(trifluoromethyl)phenyl)piperidine-4-carboxamido)methyl)isoquinolin-5-yl)benzoate], the IC50 came out at 100 nM.

As for `COC(=O)c1cccc(-c2ccc(CNC(=O)Cc3ccc(Oc4ccccc4)cc3)c3cnccc23)c1` [Example 6, methyl 3-(8-((2-(4-phenoxyphenyl)acetamido)methyl)isoquinolin-5-yl)benzoate], the IC50 is 101 nM.

Turning to `COC(=O)c1cccc(-c2ccc(CNC(=O)c3cc(C(C)(C)C)nn3C)c3cnccc23)c1` [Example 7, methyl 3-(8-((3-(tert-butyl)-1-methyl-1H-pyrazole-5-carboxamido)methyl)isoquinolin-5-yl)benzoate], the IC50 is 111 nM.

For the compound `COC(=O)c1cccc(-c2ccc(CNC(=O)c3cnn(-c4ccccc4)c3C(F)(F)F)c3cnccc23)c1` [Example 8, methyl 3-(8-((1-phenyl-5-(trifluoromethyl)-1H-pyrazole-4-carboxamido)methyl)isoquinolin-5-yl)benzoate], the 50% inhibitory concentration (IC50) was determined as 123 nM.

Regarding `CCCc1cc(C(=O)NCc2ccc(-c3cccc(C(=O)OC)c3)c3ccncc23)n(C)n1` [Example 9, methyl 3-(8-((1-methyl-3-propyl-1H-pyrazole-5-carboxamido)methyl)isoquinolin-5-yl)benzoate], the IC50 stood at 132 nM.

On to `COC(=O)c1cccc(-c2ccc(CNC(=O)C3CC34CCCC4)c3cnccc23)c1` (centres unmarked) [Example 10, methyl 3-(8-((spiro[2.4]heptane-1-carboxamido)methyl)isoquinolin-5-yl)benzoate], for which the IC50 was found to be 162 nM.

On to `COC(=O)c1cccc(-c2ccc(CNC(=O)c3cccc4cnccc34)c3cnccc23)c1` [Example 12, 8-((isoquinoline-5-carboxamido)methyl)-5-(3-(methoxycarbonyl)phenyl) isoquinolin-2-ium], for which the half-inhibitory concentration (IC50) came to 196 nM.

For the compound `COC(=O)c1cccc(-c2ccc(CNC(=O)c3ccnn3C)c3cnccc23)c1` [Example 13, methyl 3-(8-((1-methyl-1H-pyrazole-5-carboxamido)methyl)isoquinolin-5-yl)benzoate], the IC50 was 1230 nM.

As to `CCOC(=O)c1cccc(-c2ccc(CNC(=O)C3CC3c3ccccc3)c3cnccc23)c1` (centres unmarked) [Example 14, ethyl 3-(8-((2-phenylcyclopropanecarboxamido)methyl)isoquinolin-5-yl)benzoate], the IC50 stood at 71 nM.

Turning to `CCOc1cccc(-c2ccc(CNC(=O)C3CC3c3ccccc3)c3cnccc23)c1` (centres unmarked) [Example 15, N-((5-(3-ethoxyphenyl)isoquinolin-8-yl)methyl)-2-phenylcyclopropanecarboxamide], the IC50 was 115 nM.

Turning to `O=C(NCc1ccc(-c2cccc(OC(F)(F)F)c2)c2ccncc12)C1CC1c1ccccc1` (centres unmarked) [Example 17, 2-phenyl-N-((5-(3-(trifluoromethoxy)phenyl)isoquinolin-8-yl)methyl)cyclopropanecarboxamide], the IC50 came out at 3760 nM.

For `COCc1cccc(-c2ccc(CNC(=O)C3CC3c3ccccc3)c3cnccc23)c1` (centres unmarked) [Example 18, N-((5-(3-(methoxymethyl)phenyl)isoquinolin-8-yl)methyl)-2-phenylcyclopropanecarboxamide], the IC50 came to 278 nM.

Regarding `CC(C)Oc1cccc(-c2ccc(CNC(=O)C3CC3c3ccccc3)c3cnccc23)c1` (centres unmarked) [Example 19, N-((5-(3-isopropoxyphenyl)isoquinolin-8-yl)methyl)-2-phenylcyclopropanecarboxamide], the half-maximal inhibitory concentration (IC50) came out at 888 nM.

Regarding `CC(C)OC(=O)c1cccc(-c2ccc(CNC(=O)C3CC3c3ccccc3)c3cnccc23)c1` (centres unmarked) [Example 20, isopropyl 3-(8-((2-phenylcyclopropanecarboxamido)methyl)isoquinolin-5-yl)benzoate], the IC50 was found to be 1860 nM.

Turning to `NC(=O)c1cccc(-c2ccc(CNC(=O)C3CC3c3ccccc3)c3cnccc23)c1` (centres unmarked) [Example 22, 3-(8-((2-phenylcyclopropanecarboxamido)methyl)isoquinolin-5-yl)benzamide], the IC50 worked out at 6270 nM.

In the case of `COc1ccc([C@H]2C[C@@H]2C(=O)NCc2ccc(-c3cccc(OC)c3)c3ccncc23)cc1` [Example 23, (1S,2S)-2-(4-methoxyphenyl)-N-((5-(3-methoxyphenyl)isoquinolin-8-yl)methyl)cyclopropanecarboxamide], the IC50 is 9960 nM.

For the compound `COc1cccc(-c2ccc(CNC(=O)c3cc(C4CC4)on3)c3cnccc23)c1` [Example 26, 5-cyclopropyl-N-((5-(3-methoxyphenyl)isoquinolin-8-yl)methyl)isoxazole-3-carboxamide], the IC50 is 2050 nM.

Regarding `COc1cccc(-c2ccc(CNC(=O)CC(c3ccccc3)c3ccco3)c3cnccc23)c1` (centres unmarked) [Example 27, 3-(furan-2-yl)-N-((5-(3-methoxyphenyl)isoquinolin-8-yl)methyl)-3-phenylpropanamide], the IC50 came out at 6830 nM.

For the compound `COc1cccc(-c2ccc(CNC(=O)c3cncc(Br)c3)c3cnccc23)c1` [Example 28, 5-bromo-N-((5-(3-methoxyphenyl)isoquinolin-8-yl)methyl)nicotinamide], the IC50 worked out at 3930 nM.

Regarding `COc1cccc(-c2ccc(CNC(=O)c3cc(C(F)(F)F)n[nH]3)c3cnccc23)c1` [Example 29, N-((5-(3-methoxyphenyl)isoquinolin-8-yl)methyl)-3-(trifluoromethyl)-1H-pyrazole-5-carboxamide], the IC50 was 1770 nM.

As for `COc1cccc(-c2ccc(CNC(=O)CCc3nc(-c4ccccc4)no3)c3cnccc23)c1` [Example 30, N-((5-(3-methoxyphenyl)isoquinolin-8-yl)methyl)-3-(3-phenyl-1,2,4-oxadiazol-5-yl)propanamide], the IC50 stood at 818 nM.

For the compound `COc1cccc(-c2ccc(CNC(=O)Cc3cccc(Cl)c3Cl)c3cnccc23)c1` [Example 31, 2-(2,3-dichlorophenyl)-N-((5-(3-methoxyphenyl)isoquinolin-8-yl)methyl)acetamide], the IC50 was found to be 883 nM.

`COc1cccc(-c2ccc(CNC(=O)c3cccc4cccnc34)c3cnccc23)c1` [Example 32, N-((5-(3-methoxyphenyl)isoquinolin-8-yl)methyl)quinoline-8-carboxamide]: the IC50 was 2010 nM.

The record behind these values is US9828369B2, “Isoquinoline derivatives useful as inhibitors of diacylglyceride O-acyltransferase 2” (Merck Sharp & Dohme Corp., priority 2014, dated 2017).
